Experimental data published in ChEMBL document CHEMBL1667824 (Bioorg Med Chem, 2011).

Legend:
Lactoylglutathione lyase [1] = target: T1, Lactoylglutathione lyase (Homo sapiens, UniProt Q04760); assay: Inhibition of human recombinant His-tagged glyoxalase 1 expressed in Escherichia coli BL21 (DE3) preincubated for 20 mins by Dixon plot analysis
Lactoylglutathione lyase [2] = target: T1, Lactoylglutathione lyase; assay: Inhibition of glyoxalase 1

T1 sequence (Q04760 whole entry): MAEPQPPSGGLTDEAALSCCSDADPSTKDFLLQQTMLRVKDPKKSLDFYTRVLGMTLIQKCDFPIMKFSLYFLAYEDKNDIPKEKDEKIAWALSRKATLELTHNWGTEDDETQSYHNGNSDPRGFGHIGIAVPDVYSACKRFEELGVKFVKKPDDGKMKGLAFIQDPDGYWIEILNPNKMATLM

Compound | Ki (Lactoylglutathione lyase [1]) | Ki (Lactoylglutathione lyase [2])
COc1ccc(/C=C/C(=O)C(=CO)C(=O)/C=C/c2ccc(OC)cc2)cc1 | 109 µM | –
Cc1ccc(C(=O)c2ccc(CC(=O)O)n2C)cc1 [TOLMETIN] | 1010 µM | 87.8 µM
CC(C(=O)O)c1cccc(Oc2ccccc2)c1 (configuration not stated) [FENOPROFEN] | 383 µM | 400 µM
CCOC(=O)/C(=C\c1ccc([N+](=O)[O-])cc1)C(C)=O | 159 µM | –
CC1=C(CC(=O)O)c2cc(F)ccc2/C1=C\c1ccc([S+](C)[O-])cc1 (configuration not stated) | 139 µM | 77.9 µM
NC(=O)/C=C/c1ccc(F)cc1 | 1390 µM | –
CC(C(=O)O)c1cccc(C(=O)c2ccccc2)c1 (configuration not stated) [KETOPROFEN] | 843 µM | 414 µM
COC(=O)/C=C/c1ccc(F)cc1 | 1910 µM | –
Cc1cc(CC(=O)O)n(C)c1C(=O)c1ccc(Cl)cc1 [ZOMEPIRAC] | 335 µM | 107 µM
O=C(/C=C(O)/C=C/c1ccco1)/C=C/c1ccco1 | 1500 µM | –
COc1ccc(C=C(C(C)=O)C(C)=O)cc1 | 383 µM | –
O=C(O)C(=Cc1cccc([N+](=O)[O-])c1)C(=O)O | 426 µM | –
CCOC(=O)/C=C/c1ccc(O)c(OC)c1 [ETHYL FERULATE] | 385 µM | –

These reach a lower Ki (Lactoylglutathione lyase [1]). Values come first.

Ki (Lactoylglutathione lyase [1]) | Ki (Lactoylglutathione lyase [2]) | Compound
18 µM | – | O=C(/C=C/c1ccc(O)cc1)CC(=O)/C=C/c1ccc(O)cc1 [BISDEMETHOXYCURCUMIN]
91 µM | – | CC(=O)C(=Cc1cccc([N+](=O)[O-])c1)C(C)=O
4.6 µM | – | COc1cc(/C=C/C(=O)C(=Cc2ccc(OC)c(OC)c2)C(=O)/C=C/c2ccc(O)c(OC)c2)ccc1O
3.2 µM | – | COc1cc(/C=C/C(=O)C(=Cc2ccc(F)cc2)C(=O)/C=C/c2ccc(O)c(OC)c2)ccc1O
3.6 µM | – | COc1cc(C=C(C(=O)/C=C/c2ccc(O)c(OC)c2)C(=O)/C=C/c2ccc(O)c(OC)c2)ccc1O
18 µM | – | COc1cc(/C=C/C(O)=C/C(=O)/C=C/c2ccc[nH]2)ccc1O
49 µM | 12.9 µM | COc1ccc2c(c1)c(CC(=O)OCC(=O)O)c(C)n2C(=O)c1ccc(Cl)cc1 [ACEMETACIN]
24 µM | 18.1 µM | COc1ccc2c(c1)c(CC(=O)O)c(C)n2C(=O)c1ccc(Cl)cc1 [INDOMETHACIN]
39 µM | – | CCOC(=O)/C(=C\C=C(\C(C)=O)C(=O)OCC)C(C)=O
27 µM | – | CC(=O)C(=Cc1ccc([N+](=O)[O-])o1)C(C)=O
3.6 µM | – | COc1ccc(/C=C/C(=O)C(=Cc2ccc(C=O)c(C=O)c2)C(=O)/C=C/c2ccc(OC)c(OC)c2)cc1OC
65 µM | – | CCOC(=O)/C(=C\c1cccc([N+](=O)[O-])c1)C(C)=O
2.6 µM | – | COc1cc(/C=C/C(=O)C(=Cc2cccc(F)c2)C(=O)/C=C/c2ccc(O)c(OC)c2)ccc1O
4.6 µM | – | O=C(/C=C(O)/C=C/c1ccc(F)cc1)/C=C/c1ccc(F)cc1
74 µM | – | COc1ccc(/C=C/C(=O)/C=C(O)/C=C/c2ccc(CO)o2)cc1
29 µM | – | COc1ccc(/C=C/C(=O)/C=C(O)/C=C/c2ccc(O)cc2)cc1OC
90 µM | – | COc1cc(/C=C/C(O)=C/C(C)=O)ccc1O
